# From PubChem BioAssay (NCI)
#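 Tested at 5 concentrations; 48 h exposure; 96-well plates; endpoints linearly interpolated, else capped at highest concentration. At the GI50, growth is halved. TGI: concentration producing complete growth inhibition.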
# Legend:
# Experiment in all cases: NCI tumour cell line growth inhibition, 48 h
# KM20L2 colon = tested on: KM20L2 colon
# HOP-18 NSCLC = tested on: HOP-18 NSCLC
# XF 498 CNS = tested on: XF 498 CNS
# DMS 114 small cell lung = tested on: DMS 114 small cell lung
# M19-MEL melanoma = tested on: M19-MEL melanoma
# DLD-1 colon = tested on: DLD-1 colon
# RXF-631 renal = tested on: RXF-631 renal
# MDA-N = tested on: MDA-N
# SNB-78 CNS = tested on: SNB-78 CNS
SMILES,TGI (KM20L2 colon),TGI (HOP-18 NSCLC),TGI (XF 498 CNS),TGI (DMS 114 small cell lung),TGI (M19-MEL melanoma),TGI (DLD-1 colon),TGI (RXF-631 renal),TGI (MDA-N),TGI (SNB-78 CNS),GI50 (SNB-78 CNS),GI50 (KM20L2 colon),GI50 (DLD-1 colon),GI50 (MDA-N)
CC(C)(O)[C@@H]1CC[C@@]2(C)CCCC(O)C2(O)C1 (some centres undefined),> 100 µM,> 100 µM,> 100 µM,> 100 µM,> 100 µM,> 100 µM,> 100 µM,–,–,–,–,–,–
COC(=O)C(Cc1cc(OC)c(OC)c(OC)c1)C(=O)OC,> 320 µM,–,> 320 µM,> 320 µM,> 320 µM,> 320 µM,> 320 µM,–,–,–,–,–,–
COc1ccc(NC(=O)C(=O)c2c(O)c3ccc(O)cc3oc2=O)c([N+](=O)[O-])c1,> 100 µM,–,–,> 100 µM,> 100 µM,> 100 µM,> 100 µM,–,–,–,–,–,–
COc1ccc(/C=C(/C#N)C(N)=O)c(OC)c1,–,–,–,–,–,–,–,52.6 µM,–,–,–,–,–
N#CCCN(c1ccc(C=Nc2ccccc2)cc1)S(=O)(=O)c1ccccc1,–,–,> 100 µM,> 100 µM,> 100 µM,> 100 µM,–,–,> 100 µM,–,–,–,–
c1ccc2sc(SCCSc3nc4ccccc4s3)nc2c1,–,–,–,–,–,–,–,> 100 µM,–,–,–,–,–
O=C(N/C(=C\c1ccc(Cl)cc1)c1nc2ccccc2[nH]1)c1ccccc1,30.8 µM,50.3 µM,36.9 µM,–,34.7 µM,52.2 µM,–,–,85.4 µM,–,–,–,–
CC(C)(Br)C(=O)N1CCN(C(c2ccccc2)c2ccccc2)CC1,–,–,–,–,–,–,–,> 100 µM,–,–,–,–,–
Cc1c(Cl)cccc1NC(=O)C(=O)C(C(=O)c1ccccc1-c1ccccc1)C1OC(=O)c2ccccc21 (centres undefined),51.4 µM,–,29.3 µM,43.5 µM,34.8 µM,49.1 µM,71.6 µM,–,> 100 µM,–,–,–,–
COC(=O)C(C(=O)C(=O)Nc1c(C)cccc1C)c1cnc2ccccc2n1 (centres undefined),> 100 µM,> 100 µM,> 100 µM,> 100 µM,–,–,> 100 µM,–,> 100 µM,–,–,–,–
N.N.N.N.N.[Co+3].[I-].[N-]=[N+]=[N-],> 100 µM,–,–,–,–,> 100 µM,–,–,> 100 µM,> 100 µM,> 100 µM,> 100 µM,–
COc1ccc(C2=C(Cl)c3cc(OC)c(OC)cc3C2OC)cc1OC (centres undefined),> 100 µM,> 100 µM,> 100 µM,> 100 µM,> 100 µM,41.8 µM,–,–,> 100 µM,–,–,–,–
COc1cc(Nc2nc3cc(N)cc(N)c3nc2-c2ccccc2)cc(OC)c1OC,–,–,–,–,–,–,–,31.3 µM,–,–,–,–,10.5 µM
COc1cc2c(cc1OC)[C@@H](Nc1ccc(C#N)cc1)C1COC(=O)[C@@H]1C2c1cc(OC)c(O)c(OC)c1 (some centres undefined),95 µM,95 µM,–,–,95 µM,9.29 µM,–,> 100 µM,95 µM,–,–,–,–
N#Cc1c(-c2ccc(Cl)c(Cl)c2)c(-c2ccc(Cl)c(Cl)c2)nn(CC(=O)O)c1=O,56.8 µM,> 100 µM,98.4 µM,–,> 100 µM,> 100 µM,> 100 µM,–,> 100 µM,–,–,–,–
O=C1C2Nc3ccccc3SC2C(=O)N1c1ccc(Br)cc1 (centres undefined),> 100 µM,–,> 100 µM,46.4 µM,> 100 µM,> 100 µM,–,–,99.1 µM,–,–,–,–
C/C(=C1/N=C(c2cc([N+](=O)[O-])ccc2Cl)N(c2cccc(C)c2)C1=O)c1cc2ccccc2oc1=O,> 100 µM,> 100 µM,81.2 µM,> 100 µM,> 100 µM,> 100 µM,> 100 µM,–,> 100 µM,–,–,–,–
CC(C)(CN1CCCCC1)C(=O)/C=C/c1ccc(/C=C/C(=O)C(C)(C)CN2CCCCC2)cc1,1.65 µM,2.57 µM,1.28 µM,1.95 µM,2.35 µM,0.323 µM,–,0.401 µM,7.17 µM,–,–,–,–
c1ccc([P+](CCSCCSCC[P+](c2ccccc2)(c2ccccc2)c2ccccc2)(c2ccccc2)c2ccccc2)cc1,–,–,–,–,–,–,–,> 100 µM,–,–,–,–,–
COc1ccc(C/C(=N/O)C(=O)NCCc2cc(Br)c(OCCCN(C)C)c(Br)c2)cc1Br,40.6 µM,0.0986 µM,25.6 µM,36.5 µM,33.8 µM,25.3 µM,–,–,68.4 µM,–,–,–,–
Cc1ccc(S(=O)(=O)OCCn2cnc3nc(NC(=O)c4ccccc4)[nH]c(=O)c32)cc1,> 100 µM,> 100 µM,–,> 100 µM,> 100 µM,> 100 µM,–,–,> 100 µM,–,–,–,–
COC(=O)CC(NC(=O)OCc1ccccc1)C(C(C)=O)C(=O)OCc1ccccc1 (centres undefined),> 31.6 µM,> 31.6 µM,–,> 31.6 µM,> 31.6 µM,> 31.6 µM,–,–,> 31.6 µM,–,–,–,–

SMILES,TGI (KM20L2 colon),TGI (HOP-18 NSCLC),TGI (XF 498 CNS),TGI (DMS 114 small cell lung),TGI (M19-MEL melanoma),TGI (DLD-1 colon),TGI (RXF-631 renal),TGI (MDA-N),TGI (SNB-78 CNS),GI50 (SNB-78 CNS),GI50 (KM20L2 colon),GI50 (DLD-1 colon),GI50 (MDA-N)
COC(=O)c1n[nH]c(C)c1N=NN(C)CCC#N,–,–,–,–,–,–,–,> 100 µM,–,–,–,–,–
CCCCCN(CCCCC)C(=O)[C@@H](CCC(=O)O)NC(=O)c1cc2ccccc2[nH]1,> 100 µM,–,71.3 µM,> 100 µM,40.9 µM,> 100 µM,–,–,> 100 µM,–,–,–,–
CC1=CC(=O)C2=C(C)CCC3C(C)C(=O)OC3C12 (centres undefined),–,–,–,–,–,–,–,> 100 µM,–,–,–,–,–
COC(=O)C1CCc2c1c(=O)n1c([nH]c3ccccc31)c2C#N (centres undefined),> 100 µM,> 100 µM,> 100 µM,> 100 µM,> 100 µM,> 100 µM,–,–,> 100 µM,–,–,–,–
Cn1cc(C(=O)c2ccccc2)c2ccccc2c1=O,–,–,> 100 µM,> 100 µM,> 100 µM,> 100 µM,–,–,–,–,–,–,–
CN(C)C=Nc1ccn(CCO)c(=O)n1,> 100 µM,> 100 µM,–,> 100 µM,> 100 µM,> 100 µM,> 100 µM,–,> 100 µM,–,–,–,–
O=C1NC(Cc2ccc(O)cc2)C(=O)N2CCCC12 (centres undefined),> 100 µM,> 100 µM,–,> 100 µM,> 100 µM,> 100 µM,> 100 µM,–,> 100 µM,–,–,–,–
O=C(NCCCCCCCCCCCCNC(=O)c1cccc2ccccc12)c1cccc2ccccc12,> 100 µM,> 100 µM,> 75.8 µM,> 100 µM,> 100 µM,> 100 µM,> 100 µM,–,> 82.3 µM,–,–,–,–
CC(=O)OCC1OC(n2cc(F)c(=O)[nH]c2=O)C(NC(=O)N(CCCl)N=O)C(OC(C)=O)C1OC(C)=O (centres undefined),> 100 µM,> 100 µM,> 100 µM,> 100 µM,> 100 µM,> 100 µM,–,–,> 100 µM,–,–,–,–
CCC(C)CCOC(=O)c1ccc(N=Cc2ccc(C=Nc3ccc(C(=O)OCCC(C)CC)cc3)cc2)cc1 (centres undefined),> 100 µM,> 100 µM,–,> 100 µM,–,> 100 µM,–,–,> 100 µM,–,–,–,–
CC1=Nc2ccccc2S/C1=C(/C)NNS(=O)(=O)c1ccc(C)cc1,> 100 µM,> 100 µM,–,> 100 µM,> 100 µM,–,> 100 µM,–,> 100 µM,–,–,–,–
Cn1c2c(c3ccccc31)CCN(CCCCN1CCCCC1)C2=O,> 100 µM,> 100 µM,> 100 µM,–,> 100 µM,> 100 µM,> 100 µM,–,> 100 µM,–,–,–,–
COc1ccc2c(c1OC)C[C@@H]1c3c(cc4c(c3-2)OCO4)CCN1C,–,–,–,–,–,–,–,> 100 µM,–,–,–,–,–
CCOC(=O)C1Cc2c(cc3c4c(cccc24)N(C(C)=O)C3)N(C)C1 (centres undefined),–,–,–,–,–,–,–,3.29 µM,–,–,–,–,–
CC(C)c1[nH]nc(C(N)=O)c1N=NN(C)C,–,–,–,–,–,–,–,> 100 µM,–,–,–,–,–
COC(=O)CCC(NC(=S)N/N=C(\C)c1cnc2ccccc2n1)C(=O)OC (centres undefined),46 µM,> 100 µM,> 100 µM,–,–,> 100 µM,> 100 µM,–,> 100 µM,–,–,–,–
CN1c2ccccc2N(C(=O)c2ccc([N+](=O)[O-])cc2)C(CC(=O)O)c2cccn21 (centres undefined),> 100 µM,–,> 100 µM,> 100 µM,> 100 µM,> 100 µM,–,–,> 100 µM,–,–,–,–
CC(=O)O[C@H]1C(=O)[C@@]2(C)C(C(OC(=O)c3ccccc3)[C@]3(O)C[C@H](OC(=O)C(OC(=O)CCCC(=O)NCCCN(C)C)C(NC(=O)c4ccccc4)c4ccccc4)C(C)=C1C3(C)C)C1(OC(C)=O)COC1C[C@@H]2O (some centres undefined),< 0.01 µM,35 µM,< 0.0171 µM,< 0.01 µM,17.3 µM,> 40.9 µM,> 100 µM,< 0.01 µM,96.8 µM,–,–,–,–
C[C@@H](NC1CCCC[C@H]1O)c1ccccc1 (some centres undefined),> 100 µM,> 100 µM,> 100 µM,–,> 100 µM,> 100 µM,–,–,> 100 µM,–,–,–,–
O=C1CSCc2sccc21,–,–,–,–,–,–,–,> 100 µM,–,–,–,–,–
Nc1ncnc2c1ncn2[C@]1(CO)C=C(CO)C(O)C1O (some centres undefined),> 100 µM,> 100 µM,> 100 µM,> 100 µM,–,> 100 µM,> 100 µM,–,> 100 µM,–,–,–,–
